# System: μpatterned hiPSC-CMs
# Experiment: traction force microscopy of moving microbeads under beating μpatterned hiPSC-CMs
# Format: cell-based, human
# Settings: for absolute values of dmax, VC, VR, ΣFmax, PC and PR: six single cells (FIG. 5)
# Experimental: We cultured single hiPSC-CMs on Matrigel micropatterns, which were transferred from printed glass coverslips onto the surface of polyacrylamide hydrogels with a stiffness of 10 kPa as previously described. (Ribeiro 2015a) In summary, Matrigel was diluted 1:10 in L15 medium (Thermo Fisher) and added to the top of elastomeric microstamps composed of polydimethylsiloxane 182 (Dow Corning) to be incubated at 3-4° C. overnight. Microstamps consisted of 2000 μm^2 rectangular features with an aspect ratio of 7:1 (length:width). We gently aspirated Matrigel after the overnight incubation, washed the stamps twice in L15 medium, aspirated L15 medium from the surface and dried it with a low stream of N2 gas. We then used microstamps to micropattern the Matrigel rectangular features on clean glass coverslips by microcontact printing. Matrigel on micropatterns was transferred to the surface of the polyacrylamide substrates during the gelation process by placing the patterned coverslip in contact with the top of the acrylamide prepolymer solution right before gelation. The aqueous prepolymer solution to be gelled was composed of acrylamide (Sigma-Aldrich)(10% w/v), bisacrylamide (Sigma-Aldrich) (0.1% w/v), ammonium persulfate (Sigma-Aldrich) (0.01% w/v) and N,N,N′,N′-tetramethylethylenediamine (Sigma-Aldrich) (0.1% v/v), HEPES (Thermo Fisher) (35 mM) and Milli-Q water. To calculate the forces generated by cells attached to polyacrylamide surfaces with traction force microscopy, green fluorescent microbeads with a diameter of 0.2 μm (Thermo Fisher) were also dispersed in the gel solution to yield a final concentration of 6.25×10^9 microbeads/mL. We gelled acrylamide on top of another coverslip functionalized with 3-(trimethoxysilyl)propyl methacrylate (Sigma-Aldrich), which binds polyacrylamide. […] Once polymerized, polyacrylamide substrates were incubated in PBS for at least 2 hours and the top coverslips were carefully removed with a razor blade. We seeded hiPSC-CMs on these polyacrylamide hydrogel substrates after washing them 3 times with PBS.
# We passaged hiPSC-CMs onto micropatterned polyacrylamide devices at a density of 1000 cells/cm^2. For this purpose, cultures of thawed cells were washed twice with PBS and incubated in 1 mL of Accutase for 8-10 min. After observing cell detachment from the bottom of the wells, we quenched Accutase with Dulbecco's modified Eagle's medium (Thermo Fisher) containing 12% fetal bovine serum and counted the concentration of cells in medium with a hemocytometer. Then, we centrifuged cells at 83 rcf for 3 min at room temperature and aspirated the supernatant to resuspend the pelleted cells in the required volume of medium (RPMI-1640 cell-culture medium with 5 μM ROCK inhibitor) for adding 150 μL of cell solution to the surface of hydrogel devices at a concentration of 1000 cells/cm^2. After 1.5 h of incubation, we added 2.5 mL of medium to the well containing hydrogel devices and added fresh medium without ROCK inhibitor after 2 days. Single beating cells on Matrigel patterns were analyzed between 5-10 days after seeding.
# We imaged the movement of beating hiPSC-CMs and the displacement of fluorescent microbeads embedded in polyacrylamide substrates with a Zeiss Axiovert 200M inverted microscope equipped with a Zeiss Axiocam MRm CCD camera. This microscope also contained an environmental chamber (PeCon) to set temperature at 37° C. Unless otherwise noted, we acquired microscopy videos while electrically pacing hiPSC-CMs with 10 ms-wide bipolar pulses of electric-field stimulation at 10-15 V with a frequency of 1 Hz (Myopacer, lonOptix).
# To induce contractile changes in hiPSC-CMs, we added drugs known to affect CM contractile machinery to the culture medium. We analyzed the mechanical output of cells after adding drugs. […]
compound,measurement,setting,value
COC(=O)N1CCN(Cc2cccc(NC(=O)Nc3ccc(C)nc3)c2F)CC1 [omecamtiv mecarbil],mechanical output (inotropy),"0.1 μM and 10 nM omecamtiv mecarbil, videos within 5 minutes after adding, 6 cells (FIG. 10)",decreased mechanical output (negative inotropy)
same,"ΣFmax and br, acute","0.1 μM omecamtiv mecarbil, single cell (FIG. 6D)",slight acute increase
same,absolute values of PC and PR right after adding,"0.1 μM omecamtiv mecarbil, single cell, even decreased in some contractile events (FIG. 6E)",did not vary
same,PR (peak power of relaxation),"OM 0.1 μM (FIG. 6), row 'acute', single cell, no OM: 0.6",0.02 picoW
same,ΣFmax (peak force),"OM 0.1 μM (FIG. 6), row 'acute', single cell, no OM: 0.7",0.14 μN
same,PC (peak power of contraction),"OM 0.1 μM (FIG. 6), row 'acute', single cell, no OM: 0.75",0.04 picoW
same,VR (peak velocity of relaxation),"OM 0.1 μM (FIG. 6), row 'acute', single cell, no OM: 1.18",0.18 μm/s
same,VC (peak velocity of contraction),"OM 0.1 μM (FIG. 6), row 'acute', single cell, no OM: 1.35",0.29 μm/s
same,PR (peak power of relaxation),"OM 0.1 μM (FIG. 6), row 'chronic', single cell, no OM: 0.6",0.59 picoW
same,ΣFmax (peak force),"OM 0.1 μM (FIG. 6), row 'chronic', single cell, no OM: 0.7",0.72 μN
same,PC (peak power of contraction),"OM 0.1 μM (FIG. 6), row 'chronic', single cell, no OM: 0.75",0.67 picoW
same,VR (peak velocity of relaxation),"OM 0.1 μM (FIG. 6), row 'chronic', single cell, no OM: 1.18",1.1 μm/s
same,VC (peak velocity of contraction),"OM 0.1 μM (FIG. 6), row 'chronic', single cell, no OM: 1.35",1.22 μm/s
same,time of contractions,higher concentrations of omecamtiv mecarbil (FIG. 10D),increase
same,rate of beating,lower concentrations of omecamtiv mecarbil (FIG. 10E),increased
same,variations of t̂ and br between 0.1 μM and 10 nM,"omecamtiv mecarbil, within 5 minutes after adding (FIG. 10D,E)",statistically different
same,instantaneous acute inotropic effect,"within 10 seconds of adding 0.1 μM omecamtiv mecarbil, single cell (FIG. 10J)",positive inotropy
CC(C)NCC(O)c1ccc(O)c(O)c1 (stereo not drawn) [isoproterenol],t̂ (time between peak velocity of contraction and of relaxation),"0.1 μM and 1 μM isoproterenol, six cells, no significant difference between the two concentrations (FIG. 5G)",decreased
same,br (beat rate),"0.1 μM and 1 μM isoproterenol, six cells, no significant difference between the two concentrations (FIG. 5H)",increased
same,br (beat rate),"0.1 μM isoproterenol, single cell (FIG. 4D)",increased
same,"absolute values of dmax, VC, VR, ΣFmax, PC and PR",0.1 μM isoproterenol,consistently increased
same,br (beat rate),"1 μM isoproterenol, single cell (FIG. 4D)",clear increase
same,"ΣFmax, PC and PR","1 μM isoproterenol, single cell (FIG. 4D,E)",substantial decrease
same,"absolute values of dmax, VC, VR, ΣFmax, PC and PR",1 μM isoproterenol,decreased
same,PR (peak power of relaxation),"ISO 0.1 (μM per FIG. 4), single cell, no ISO: 0.28",0.36 picoW
same,ΣFmax (peak force),"ISO 0.1 (μM per FIG. 4), single cell, no ISO: 0.53",0.58 μN
same,PC (peak power of contraction),"ISO 0.1 (μM per FIG. 4), single cell, no ISO: 0.7",0.86 picoW
same,VR (peak velocity of relaxation),"ISO 0.1 (μM per FIG. 4), single cell, no ISO: 1.05",0.85 μm/s
same,VC (peak velocity of contraction),"ISO 0.1 (μM per FIG. 4), single cell, no ISO: 1.68",1.92 μm/s
same,PR (peak power of relaxation),"ISO 1 (μM per FIG. 4), single cell, no ISO: 0.28",0.06 picoW
same,ΣFmax (peak force),"ISO 1 (μM per FIG. 4), single cell, no ISO: 0.53",0.15 μN
same,PC (peak power of contraction),"ISO 1 (μM per FIG. 4), single cell, no ISO: 0.7",0.1 picoW
same,VR (peak velocity of relaxation),"ISO 1 (μM per FIG. 4), single cell, no ISO: 1.05",0.93 μm/s
same,VC (peak velocity of contraction),"ISO 1 (μM per FIG. 4), single cell, no ISO: 1.68",0.43 μm/s
same,inotropic and chronotropic response,extracellular isoproterenol 0.1 μM (FIGS. 4 and 5),positive inotropic and positive chronotropic responses
same,inotropic and chronotropic response,isoproterenol increased to 1 μM (FIGS. 4 and 5),"negative inotropic effect, but a stronger chronotropic response"

# Source: patent US20180106782A1, “HIGH THROUGHPUT CARDIOTOXICITY SCREENING PLATFORM” (The Board of Trustees of the Leland Stanford Junior …, priority 2016, published 2018)
